Data taken from ChEMBL document CHEMBL1201862, “PubChem BioAssay data set” (2004).
Calls of active or inactive are those of the source.

Experiments:
cells [1] = type: functional, cell-based
[2] = biological target: Heat shock protein HSP 90-alpha (Homo sapiens, UniProt P07900); type: functional, organism-based
[3] = biological target: T1, Sentrin-specific protease 6 (Homo sapiens, UniProt Q9GZR1); type: functional;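 also: Luminescence-based dose-response confirmatory assay of SENP6 inhibition, following up an ultra-high-throughput screen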
T1 sequence (Q9GZR1 whole entry): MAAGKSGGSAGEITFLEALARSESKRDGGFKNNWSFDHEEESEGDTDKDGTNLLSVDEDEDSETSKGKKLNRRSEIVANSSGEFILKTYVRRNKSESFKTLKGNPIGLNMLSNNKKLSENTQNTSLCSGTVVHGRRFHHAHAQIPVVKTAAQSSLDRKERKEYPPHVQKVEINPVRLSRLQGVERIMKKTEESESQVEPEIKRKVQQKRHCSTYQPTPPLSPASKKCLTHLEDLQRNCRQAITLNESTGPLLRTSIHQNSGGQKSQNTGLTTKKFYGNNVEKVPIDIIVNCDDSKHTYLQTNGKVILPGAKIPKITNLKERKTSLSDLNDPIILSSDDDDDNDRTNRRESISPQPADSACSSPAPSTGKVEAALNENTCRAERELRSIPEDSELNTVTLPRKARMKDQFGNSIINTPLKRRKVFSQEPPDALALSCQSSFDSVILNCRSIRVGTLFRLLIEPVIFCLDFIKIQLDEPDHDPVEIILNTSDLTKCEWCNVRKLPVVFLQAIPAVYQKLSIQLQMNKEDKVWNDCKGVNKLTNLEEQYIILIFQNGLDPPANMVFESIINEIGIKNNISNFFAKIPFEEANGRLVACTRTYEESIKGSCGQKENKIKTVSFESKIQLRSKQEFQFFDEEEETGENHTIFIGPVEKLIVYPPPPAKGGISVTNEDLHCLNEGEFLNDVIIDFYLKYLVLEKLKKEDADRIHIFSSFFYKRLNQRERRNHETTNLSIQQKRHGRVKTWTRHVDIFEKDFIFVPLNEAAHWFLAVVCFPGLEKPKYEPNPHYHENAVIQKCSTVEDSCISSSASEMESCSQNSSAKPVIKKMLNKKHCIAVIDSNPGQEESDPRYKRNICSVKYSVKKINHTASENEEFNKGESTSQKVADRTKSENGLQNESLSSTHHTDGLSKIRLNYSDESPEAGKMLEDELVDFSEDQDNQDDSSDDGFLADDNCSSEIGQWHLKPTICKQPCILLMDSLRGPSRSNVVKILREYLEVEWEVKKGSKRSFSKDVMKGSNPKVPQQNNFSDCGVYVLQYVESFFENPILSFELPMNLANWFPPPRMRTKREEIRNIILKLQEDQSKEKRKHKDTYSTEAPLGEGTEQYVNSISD

Caspase-3 = biological target: T2, Caspase-3 (Homo sapiens, UniProt P42574); type: functional;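 also: Dose-response selectivity test against caspase-3 for candidate inhibitors of sentrin-specific proteases (SENPs)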
T2 sequence (P42574 whole entry): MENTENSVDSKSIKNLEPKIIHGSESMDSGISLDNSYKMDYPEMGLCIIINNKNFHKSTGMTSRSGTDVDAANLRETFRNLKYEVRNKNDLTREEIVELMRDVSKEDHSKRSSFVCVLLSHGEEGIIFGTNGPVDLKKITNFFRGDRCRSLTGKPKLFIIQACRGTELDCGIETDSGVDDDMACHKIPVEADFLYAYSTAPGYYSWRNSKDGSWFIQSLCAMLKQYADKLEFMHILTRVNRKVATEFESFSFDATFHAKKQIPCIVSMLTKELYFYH

cells [4] = type: functional, cell-based; remark: listed apart in the source
[5] = biological target: T3, Sentrin-specific protease 7 (Homo sapiens, UniProt Q9BQF6); type: functional;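 also: Luminescence-based dose-response confirmation of ultra-high-throughput screening hits, measuring inhibition of SENP7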
T3 sequence (Q9BQF6 whole entry): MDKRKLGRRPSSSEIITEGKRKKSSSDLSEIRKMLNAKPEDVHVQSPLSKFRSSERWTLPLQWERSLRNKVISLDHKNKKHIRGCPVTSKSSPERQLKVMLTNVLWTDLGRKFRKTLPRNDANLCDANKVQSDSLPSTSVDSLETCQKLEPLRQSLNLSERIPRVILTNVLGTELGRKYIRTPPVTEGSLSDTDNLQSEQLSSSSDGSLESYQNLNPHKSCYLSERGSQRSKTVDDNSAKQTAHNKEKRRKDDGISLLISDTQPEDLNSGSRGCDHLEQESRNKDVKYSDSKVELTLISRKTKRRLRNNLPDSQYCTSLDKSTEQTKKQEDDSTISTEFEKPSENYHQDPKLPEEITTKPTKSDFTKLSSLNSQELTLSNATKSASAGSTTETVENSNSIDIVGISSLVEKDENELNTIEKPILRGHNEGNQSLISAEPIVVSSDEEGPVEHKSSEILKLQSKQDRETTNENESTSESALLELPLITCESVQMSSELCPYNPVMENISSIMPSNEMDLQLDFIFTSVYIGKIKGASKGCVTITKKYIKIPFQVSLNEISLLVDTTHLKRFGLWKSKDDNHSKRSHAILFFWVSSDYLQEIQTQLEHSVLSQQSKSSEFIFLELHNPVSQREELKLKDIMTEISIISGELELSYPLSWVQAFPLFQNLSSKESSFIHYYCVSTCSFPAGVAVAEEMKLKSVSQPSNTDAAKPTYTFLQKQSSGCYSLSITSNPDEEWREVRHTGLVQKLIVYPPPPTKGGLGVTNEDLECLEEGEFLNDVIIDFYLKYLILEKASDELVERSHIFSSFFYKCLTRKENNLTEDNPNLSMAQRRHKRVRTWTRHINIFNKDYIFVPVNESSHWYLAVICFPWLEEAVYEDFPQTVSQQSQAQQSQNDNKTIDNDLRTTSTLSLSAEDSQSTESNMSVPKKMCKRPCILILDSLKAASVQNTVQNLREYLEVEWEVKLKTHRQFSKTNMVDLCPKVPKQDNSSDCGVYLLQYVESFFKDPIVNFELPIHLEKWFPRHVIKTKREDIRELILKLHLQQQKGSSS

[6] = biological target: T4, Sentrin-specific protease 8 (Homo sapiens, UniProt Q96LD8); type: functional;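 also: luminescence read-out of SENP8 inhibition, dose-response confirmation following an ultra-high-throughput screen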
T4 sequence (Q96LD8 whole entry): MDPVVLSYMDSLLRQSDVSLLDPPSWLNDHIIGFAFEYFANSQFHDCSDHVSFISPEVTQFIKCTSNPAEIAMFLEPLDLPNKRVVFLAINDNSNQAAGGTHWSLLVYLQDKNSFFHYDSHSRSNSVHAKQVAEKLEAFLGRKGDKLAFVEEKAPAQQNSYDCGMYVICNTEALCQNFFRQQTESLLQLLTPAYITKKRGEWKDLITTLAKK

[7] = biological target: T5, Mitochondrial peptide methionine sulfoxide reductase (Bos taurus, UniProt P54149); type: functional;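 also: absorbance read-out, biochemical high-throughput dose-response screen for MsrA inhibitors, confirmatory; recombinant bovine MsrA coupled to E. coli TrxB with NADPH and selenocystamine; potency is for inhibitors of MsrA activity on DMSO substrate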
T5 sequence (P54149 whole entry): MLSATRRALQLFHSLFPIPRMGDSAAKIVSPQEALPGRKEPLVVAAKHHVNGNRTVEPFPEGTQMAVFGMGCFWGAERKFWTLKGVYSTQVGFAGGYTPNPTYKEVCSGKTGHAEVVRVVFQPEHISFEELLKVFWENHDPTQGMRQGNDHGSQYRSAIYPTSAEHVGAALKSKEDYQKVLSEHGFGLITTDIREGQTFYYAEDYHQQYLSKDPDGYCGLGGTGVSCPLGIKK

BJ [8] = assay: cells; type: functional, cell-based; settings: Homo sapiens
[9] = HIV-1 AD8 envelope cell-cell fusion blockers – cherry-pick, dose response (AID 652062); type: functional, cell-based;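 also: luciferase signal from cell-cell fusion driven by HIV-1 clade B AD8 Env; potency is for inhibitors of fusion seen as a drop in luminescence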
[10] = Luminescence Cell-Based Dose Response HTS to Identify Inhibitors of 5'UTR Stem-Loop Driven Prion Protein mRNA Translation in H4 Neuroglioblastoma Cells. [Related pubchem assays: 1827 (Project Summary), 1813 (Primary HTS)]; type: functional
[11] = alpha-synuclein stem-loop luciferase translation blockers – H4 neuroglioma cells, luminescence, confirmation (AID 1988); type: functional, cell-based
INS1 = assay: INS-1E survival protection against cytokine death – cell-based, luminescence, retest, dose response (AID 449756); type: functional; settings: Rattus norvegicus;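 also: cell death triggered by IL-1 beta plus TNF-alpha plus IFN-gamma mixture; protective hits raise ATP signal compared with cytokine alone wells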
[12] = blockers of HIV-1 ZM109 envelope-driven cell-cell fusion – HeLa effector, CEM target cells, luciferase, cherry-pick, dose response (AID 652058); type: functional, cell-based;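 also: luciferase signal from HIV-1 Env mediated cell-cell fusion of effector and target cells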
BJ [13] = assay: BJ-TERT-LT-ST fibroblast viability loss – cell-based, RAS-independent, luminescence, dose response (AID 1935); type: functional; settings: Homo sapiens;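 also: BJ fibroblasts immortalized with TERT plus LT and ST oncogenes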
[14] = HepG2 cell cytotoxicity, dose response, cytotoxicity control for non-replicating M. tuberculosis project (AID 489018); type: functional; settings: Mycobacterium tuberculosis
[15] = luciferase reporter signal suppression in cells – H4 neuroglioma cells, luminescence, dose response (AID 1990); type: functional, cell-based
BJ [16] = assay: BJ-TERT fibroblast viability loss – cell-based, RAS-independent, luminescence, dose response (AID 1933); type: functional; settings: Homo sapiens
CHO = CHO cell viability loss, potency – luminescence, cytotoxicity control for TLR9-MyD88 binding inhibitor project, dose response (AID 588339); type: functional, cell-based, hamster; settings: Cricetulus griseus;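 also: CHO cells stably coexpressing TLR9 and MyD88 fusions from primary screen; compound exposure lasted 48 hours before viability readout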
[17] = Vero E6 cell cytotoxicity, dose response, cytotoxicity control for non-replicating M. tuberculosis project, secondary assay (AID 492998); type: functional, VeroE6; settings: Vero C1008
[18] = THP-1 cell cytotoxicity, dose response, cytotoxicity control for non-replicating M. tuberculosis project (AID 489025); type: functional
Bcl-2-related protein A1 = biological target: T6, Bcl-2-related protein A1 (Mus musculus, UniProt Q07440); type: functional;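 also: confirmatory dose–response counterscreen on Bfl-1, used to check hits from a UBC13 polyubiquitin inhibitor campaign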
T6 sequence (Q07440 whole entry): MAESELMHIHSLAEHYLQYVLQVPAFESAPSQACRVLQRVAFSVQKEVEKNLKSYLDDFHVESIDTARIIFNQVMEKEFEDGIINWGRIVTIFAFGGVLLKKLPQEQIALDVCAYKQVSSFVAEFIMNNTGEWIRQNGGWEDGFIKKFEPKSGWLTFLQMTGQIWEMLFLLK

[19] = biological target: T7, Ubiquitin-conjugating enzyme E2 N (Homo sapiens, UniProt P61088); type: functional
T7 sequence (P61088 whole entry): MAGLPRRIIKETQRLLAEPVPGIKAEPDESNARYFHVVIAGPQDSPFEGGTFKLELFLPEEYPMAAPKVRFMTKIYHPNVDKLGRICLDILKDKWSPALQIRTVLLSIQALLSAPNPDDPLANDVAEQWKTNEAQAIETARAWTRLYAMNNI

[20] = HEK-293T viability loss after treatment – luminescence, T-cell screen hits, cytotoxicity control for TCR NF-kB inhibitor project, dose response (AID 489026); type: functional, cell-based;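 also: cells exposed to compound about 14 hours before the viability readout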
[21] = biological target: Aryl hydrocarbon receptor (Homo sapiens, UniProt P35869); assay: Luminescence-based cell-based high throughput dose response assay for activators of the Aryl Hydrocarbon Receptor (AHR). [Related pubchem assays: 2796 (Primary screen (AHR activators in singlicate)), 2845 (Confirmation screen (AHR activators in triplicate)), 434939 (Counterscreen (PXR activators in triplicate)), 2804 (Summary (AHR activators))]; type: ADME
[22] = blockers of HIV-1 envelope-mediated cell-cell fusion – cherry-pick, dose response (AID 652057); type: functional, cell-based
Beta Lactamase = Beta Lactamase (Pseudomonas aeruginosa, UniProt Q932Y6); assay: BLA reporter interference, concentration series – BLA reporter cells, FRET fluorescence, artefact control for TLR9-MyD88 binding inhibitor project, dose response (AID 588341); type: cell-based;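 also: cell based assay in CHO-K1 cells stably expressing beta-lactamase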
[23] = off-target signal loss in HeLa-CEM21 co-culture – HeLa F-luc CTL cells, cherry-picked, counter-screen for HIV-1 Env fusion inhibitor project, dose response (AID 652040); type: functional, cell-based;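 also: potency for signal decrease marking cytotoxic or nonspecific inhibition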
[24] = biological target: T7, Ubiquitin-conjugating enzyme E2 N; type: functional; remark: listed apart in the source
[25] = viability loss in CEM21 cells – cell-based, CellTiter-Glo luminescence, cherry-picked, cytotoxicity control for viral fusion inhibitor project, dose response (AID 652042); type: functional;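 also: potency for signal decrease meaning cytotoxicity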
cells [26] = type: functional
[27] = DRD fibroblast viability loss – cell-based, non-viral oncogenic, luminescence, dose response (AID 1934); type: functional; settings: Homo sapiens
BJ [28] = assay: growth inhibition of engineered Ras-driven BJ cells – cell-based, alamar blue fluorescence, cherrypicked samples, dose response (AID 2631); type: functional; settings: Homo sapiens;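 also: confirmatory dose-response assay in RAS-dependent BJ fibroblasts engineered with TERT, LT and ST, with cytotoxicity read by fluorescence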

Sequence of Aryl hydrocarbon receptor (P35869 whole entry, the tested form may be a part): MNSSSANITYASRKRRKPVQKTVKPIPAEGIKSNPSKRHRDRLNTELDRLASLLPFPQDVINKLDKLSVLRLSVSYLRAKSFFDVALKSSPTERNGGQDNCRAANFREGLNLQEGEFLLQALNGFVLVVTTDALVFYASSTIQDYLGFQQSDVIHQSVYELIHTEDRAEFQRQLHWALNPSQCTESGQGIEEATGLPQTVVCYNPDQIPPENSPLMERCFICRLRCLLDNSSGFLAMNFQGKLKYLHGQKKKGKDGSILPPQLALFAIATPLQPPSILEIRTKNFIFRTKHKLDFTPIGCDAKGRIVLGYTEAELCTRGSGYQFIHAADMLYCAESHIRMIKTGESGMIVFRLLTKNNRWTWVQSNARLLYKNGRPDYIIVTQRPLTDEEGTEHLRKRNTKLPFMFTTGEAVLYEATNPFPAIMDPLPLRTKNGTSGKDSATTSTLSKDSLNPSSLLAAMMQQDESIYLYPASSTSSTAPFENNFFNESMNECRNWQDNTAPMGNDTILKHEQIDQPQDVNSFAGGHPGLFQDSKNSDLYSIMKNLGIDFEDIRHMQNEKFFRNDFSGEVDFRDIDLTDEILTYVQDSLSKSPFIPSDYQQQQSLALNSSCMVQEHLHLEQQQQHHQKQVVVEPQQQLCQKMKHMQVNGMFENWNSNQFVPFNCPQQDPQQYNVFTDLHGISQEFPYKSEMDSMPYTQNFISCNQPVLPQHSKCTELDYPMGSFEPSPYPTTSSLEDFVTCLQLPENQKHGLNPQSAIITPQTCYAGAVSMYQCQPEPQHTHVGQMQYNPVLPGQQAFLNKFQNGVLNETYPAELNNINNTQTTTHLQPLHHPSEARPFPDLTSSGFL
Sequence of Beta Lactamase (Q932Y6 whole entry, the tested form may be a part): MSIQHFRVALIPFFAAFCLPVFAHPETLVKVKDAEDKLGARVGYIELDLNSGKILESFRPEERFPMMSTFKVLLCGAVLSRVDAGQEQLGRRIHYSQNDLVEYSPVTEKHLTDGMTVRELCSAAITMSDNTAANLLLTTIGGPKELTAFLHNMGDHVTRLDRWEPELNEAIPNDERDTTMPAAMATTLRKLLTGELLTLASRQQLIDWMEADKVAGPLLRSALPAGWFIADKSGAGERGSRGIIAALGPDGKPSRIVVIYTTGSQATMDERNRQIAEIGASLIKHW

## CCCCNc1nc(N)nc(-c2cc(Cl)ccc2O)n1
Cells [1]
  EC50: > 350 µM (not active)
[2]
  AC50: 4.87 µM (active)
[3]
  IC50: > 100 µM (inactive)
Caspase-3
  IC50: 44.1 µM (active)
Cells [4]
  EC50: 3.49 µM (active)
[5]
  IC50: 4.54 µM (active)
[6]
  IC50: > 100 µM (inactive)

## COc1ccc2nc(C)cc(N/N=C/c3ccc(F)cc3)c2c1
[7]
  IC50: 12.8 µM (inactive)
BJ [8]
  EC50: 5.09 µM (inconclusive)
[9]
  AC50: 14.7 µM (active)
[10]
  EC50: > 120 µM (not active)
[11]
  EC50: 9.29 µM (active)
INS1
  AC50: 6.46 µM (active)
[12]
  AC50: 8.14 µM (active)
BJ [13]
  EC50: 2.66 µM (inconclusive)
[14]
  CC50: 15.2 µM (active)
[15]
  EC50: 8.44 µM (active)
BJ [16]
  EC50: 1.24 µM (inconclusive)
CHO
  IC50: 6.2 µM (active)
[17]
  CC50: 0.57 µM (active)
[18]
  CC50: 1.66 µM (active)
Bcl-2-related protein A1
  IC50: 17 µM (active)
[19]
  IC50: 11.8 µM (active)
[20]
  IC50: > 80 µM (inactive)
[21]
  EC50: > 0.377 µM (active)
[22]
  AC50: 8.26 µM (active)
Beta Lactamase
  IC50: 2.13 µM (active)
[23]
  AC50: 6.09 µM (active)
[24]
  IC50: 10.1 µM (active)
[25]
  AC50: 2.65 µM (active)
Cells [26]
  IC50: 3.12 µM (active)
[27]
  EC50: 4.92 µM (active)
BJ [28]
  EC50: 0.317 µM (active)
